target: T1, KRAS G12C 1-169, his-tagged protein, GDP-loaded (Homo sapiens, UniProt P01116, G12C); test: Biochemical assay: covalent binding (modification %) to KRAS G12C by mass spectrometry; conditions: 2 hour incubation period, 8 μM compound (compounds 21-92)
T1 construct: KRAS G12C 1-169, his-tagged protein, GDP-loaded

**Q.** Which Binding % does the source give for `C=CC(=O)N1CC(N2Cc3ccc(C(=O)N4CCC(N)C4)cc3C2=O)C1` (centres unmarked) [Compound 79, 2-(1-acryloylazetidin-3-yl)-6-(3-aminopyrrolidine-1-carbonyl)isoindolin-1-one] here?
**A.** + (+ indicates binding activity up to 10%)

**Q.** Which Binding % does the source give for `C=CC(=O)N1CC(N2Cc3ccc(-c4ccc(C#N)cc4)cc3C2=O)C1` [Compound 80, 4-(2-(1-acryloylazetidin-3-yl)-3-oxoisoindolin-5-yl)benzonitrile] here?
**A.** + (+ indicates binding activity up to 10%)

**Q.** For `C=CC(=O)N1CC(N2Cc3ccc(-c4ccc(C(N)=O)cc4)cc3C2=O)C1` [Compound 81, 4-(2-(1-acryloylazetidin-3-yl)-3-oxoisoindolin-5-yl)benzamide], which Binding % is on record?
**A.** + (+ indicates binding activity up to 10%)

**Q.** `C=CC(=O)N1CC(N2Cc3ccc(-c4cc(O)cc5ccccc45)nc3C2=O)C1` [Compound 82, 6-(1-acryloylazetidin-3-yl)-2-(3-hydroxynaphthalen-1-yl)-5,6-dihydro-7H-pyrrolo[3,4-b]pyridin-7-one] was tested. Which Binding % did it give?
**A.** + (+ indicates binding activity up to 10%)

**Q.** `C=CC(=O)N1CC(N2Cc3c(C(N)=O)cc(-c4c(O)cccc4F)cc3C2=O)C1` [Compound 83, 2-(1-acryloylazetidin-3-yl)-6-(2-fluoro-6-hydroxyphenyl)-1-oxoisoindoline-4-carboxamide] was tested. Which Binding % did it give?
**A.** + (+ indicates binding activity up to 10%)

**Q.** For `C=CC(=O)N1CC(N2Cc3ccc(C(=O)Nc4cn[nH]c4)cc3C2=O)C1` [Compound 84, 2-(1-acryloylazetidin-3-yl)-3-oxo-N-(1H-pyrazol-4-yl)isoindoline-5-carboxamide], which Binding % is on record?
**A.** + (+ indicates binding activity up to 10%)

**Q.** Which Binding % does the source give for `C=CC(=O)N1CCC(N2Cc3c(C(N)=O)cc(-c4c(C)ccc5[nH]ncc45)cc3C2=O)C1` (centres unmarked) [Compound 85, 2-(1-acryloylpyrrolidin-3-yl)-6-(5-methyl-1H-indazol-4-yl)-1-oxoisoindoline-4-carboxamide] here?
**A.** + (+ indicates binding activity up to 10%)

**Q.** How did the Binding % turn out when `C=CC(=O)N1CC(N2Cc3ccc(NC(=O)c4cn[nH]c4)cc3C2=O)C1` [Compound 86, N-(2-(1-acryloylazetidin-3-yl)-3-oxoisoindolin-5-yl)-1H-pyrazole-4-carboxamide] was run?
**A.** + (+ indicates binding activity up to 10%)

**Q.** `C=CC(=O)N1CC(N2Cc3ccc(-c4c(C)ccc5[nH]ncc45)nc3C2=O)C1` [Compound 87, 6-(1-acryloylazetidin-3-yl)-2-(5-methyl-1H-indazol-4-yl)-5,6-dihydro-7H-pyrrolo[3,4-b]pyridin-7-one] was tested. Which Binding % did it give?
**A.** + (+ indicates binding activity up to 10%)

**Q.** With `C=CC(=O)N1CC(N2Cc3ccc(-c4nc(N)ncc4C)cc3C2=O)C1` [Compound 88, 2-(1-acryloylazetidin-3-yl)-6-(2-amino-5-methylpyrimidin-4-yl)isoindolin-1-one] as the molecule, how does the Binding % read?
**A.** + (+ indicates binding activity up to 10%)

**Q.** For `C=CC(=O)N1CC(N2Cc3c(C#N)cc(-c4c(C)ccc5[nH]ncc45)cc3C2=O)C1` [Compound 89, 2-(1-acryloylazetidin-3-yl)-6-(5-methyl-1H-indazol-4-yl)-1-oxoisoindoline-4-carbonitrile], which Binding % is on record?
**A.** + (+ indicates binding activity up to 10%)

**Q.** How did the Binding % turn out when `C=CC(=O)N1CC(N2Cc3ccc(-c4ccc(O)nc4)cc3C2=O)C1` [Compound 90, 2-(1-acryloylazetidin-3-yl)-6-(6-hydroxypyridin-3-yl)isoindolin-1-one] was run?
**A.** + (+ indicates binding activity up to 10%)

**Q.** How did the Binding % turn out when `C=CC(=O)N1CCC(N2Cc3c(C(N)=O)cc(-c4c(O)cccc4F)cc3C2=O)C1` (centres unmarked) [Compound 91, 2-(1-acryloylpyrrolidin-3-yl)-6-(2-fluoro-6-hydroxyphenyl)-1-oxoisoindoline-4-carboxamide] was run?
**A.** + (+ indicates binding activity up to 10%)

**Q.** For `C=CC(=O)N1CC(N2Cc3c(OC)cc(-c4c(C)ccc5[nH]ncc45)cc3C2=O)C1` [Compound 92, 2-(1-acryloylazetidin-3-yl)-4-methoxy-6-(5-methyl-1H-indazol-4-yl)isoindolin-1-one], which Binding % is on record?
**A.** ++ (++ indicates binding activity from 10 to 50%)

From US10377743B2, “Inhibitors of RAS and methods of use thereof” (Araxes Pharma LLC, priority 2016, dated 2019)
